Test results reported in patent US20130344501A1, “METHODS FOR PRODUCING THREE-DIMENSIONAL PHYSIOLOGICALLY RELEVANT IMMUNE TISSUE SYSTEMS UNDER LOW FLUID SHEAR CONDITIONS” (priority 2010, published 2013).

Experiments:
[1] = test system: A549 cells in A549-U937 3-D co-culture; assay: Viability of A549 epithelial cells in the three-dimensional A549-U937 co-culture after exposure to 3-oxo-C12 HSL; format: cell-based, human; details: A549 co-cultured three-dimensionally with U937, 20 hour exposure
Method: (§1) A549 three-dimensional aggregates were grown as described above and after 9 days of three-dimensional A549 cultivation, undifferentiated U937 monocytes were added to the HARV as follows. three-dimensional A549 cells were counted by trypsinization of an aggregate sample and U937 cells (grown in T75 flasks) were added in a 1:1 ratio to the three-dimensional A549 culture. A549 and U937 cells were co-cultured in the HARV at 20 rpm for 72 h. After addition of the monocytes, culture medium was changed after 48 hours of co-cultivation where after medium was replenished every 24 hours.
(§2) Assessment of live-, apoptotic-, and necrotic cell populations was performed with the annexin V-propidium iodide (PI) kit for flow cytometry analysis (ImmunoSource) according to the manufacturer's instructions.
(§3) Stained cell suspensions were analyzed with an EPICS XL flow cytometer (Beckman-Coulter) or a Cytomics FC 500 system (Beckman-Coulter), equipped with an argon laser and filters for adequate excitation of the chosen fluorophores. Forward scatter, side scatter, FITC-, PI and PE-Cy5 emissions were measured and a total of 10,000 cells were recorded for each sample. The respective cell populations were delimited to eliminate background signals originating from cell debris. To assess background fluorescent signals from the tested cell populations, non-stained samples were included.
After 72 hours of co-cultivation, aggregates containing 2×10^6 cells were seeded into 6-well plates containing fresh medium (5 ml total volume). Subsequently, aggregates were spiked with 5, 10 or 100 μM 3-oxo-C12 HSL (Sigma-Aldrich) (starting from a 20 mM stock solution in DMSO, stored at −20° C.). Equal volumes of DMSO, containing the respective amounts of 3-oxo-C12 HSL, were added to each well (25 μl) and a solvent control (25 μl DMSO) was included in each experiment. Six-well plates were placed at 37° C. in a 5% CO2 environment and incubated for 20 hours. […] Consequently, cell viability was further assessed based on the shift in forward scatter signal (see Table 1).

[2] = test system: U937 cells in A549-U937 3-D co-culture; assay: Viability of U937 macrophage-like cells (CD45 positive) in the three-dimensional A549-U937 co-culture after exposure to 3-oxo-C12 HSL; format: cell-based, human; details: for Percentage viability, A549-U937 3-D, U937: U937 co-cultured three-dimensionally with A549, 20 hour exposure
Method: as §1, §2, §3
three-dimensional co-cultures of A549 and U937 cells (as described above) were stained for CD45, since this marker specifically stains leukocytes.
After 72 hours of co-cultivation, aggregates containing 2×10^6 cells were seeded into 6-well plates containing fresh medium (5 ml total volume). Subsequently, aggregates were spiked with 5, 10 or 100 μM 3-oxo-C12 HSL (Sigma-Aldrich) (starting from a 20 mM stock solution in DMSO, stored at −20° C.). Equal volumes of DMSO, containing the respective amounts of 3-oxo-C12 HSL, were added to each well (25 μl) and a solvent control (25 μl DMSO) was included in each experiment. Six-well plates were placed at 37° C. in a 5% CO2 environment and incubated for 20 hours. For exposure assays of monocytes to 3-oxo-C12 HSL, 2×10^6 U937 cells/well were transferred in 6-well plates. To assess the influence of 3-oxo-C12 HSL on monocytes cultured on microcarrier beads, collagen I-coated beads were added to the cells at the same concentration as for seeding three-dimensional cultures (1 bead per 2500 cells). Subsequently, monocyte cultures (with or without microcarrier beads) were spiked with 3-oxo-C12 HSL (see above). A solvent control was included. After 20 hours incubation, cells were processed for flow cytometry analysis. Cell viability was assayed with trypan blue (0.4%) (Sigma) and/or with the annexin V-PI kit (ImmunoSource) (see above). […] FIG. 9B are examples of the three-dimensional A549-U937 co-culture model exposed to 100 μM 3-oxo-C12 HSL and to the solvent control DMSO. The presented cell population is gated for CD45 positive cells and thus only includes monocytes/macrophages. For FIGS. 9A-B, “I” represents the percentage of dead cells, while “H” is the viable cell population. Consequently, cell viability was further assessed based on the shift in forward scatter signal (see Table 1).

[3] = test system: U937 cultures; format: in vitro ADME, human; details: compared to three-dimensional A549 and A549-U937 cultures
Method: (§4) Following exposure of three-dimensional cultures and monocytes to 3-oxo-C12 HSL, cell-free samples were taken and stored at −20° C. at indicated time points. The remaining 3-oxo-C12 HSL concentration was assessed as previously described (Crabbé et al., 2008) using the indicator strain E. coli harboring the reporter plasmid pUCP22NotI-PlasB::gfp(ASV)Plac::lasR (Hentzer et al., 2002). A 3-oxo-C12 HSL standard series was included ranging from 1.63 to 100 μM. Culture medium containing microcarrier beads was used as a control to normalize for bioadsorption.

[4] = test system: three-dimensional A549 and three-dimensional A549-U937 cultures; format: in vitro ADME, human; details: original concentration 100 μM
Method: as §4

[5] = test system: ICAM-1 expression of A549 cells (derived from the three-dimensional A549-U937 co-culture); assay: ICAM-1 expression of A549 cells from the three-dimensional A549-U937 co-culture exposed to 3-oxo-C12 HSL, flow cytometry; format: cell-based, human
From the text: (§5) Mouse anti-human CD45 (Invitrogen) and ICAM-1 (Invitrogen) conjugated with phycoerythrin (PE)-Cy5 and FITC respectively were used for flow cytometry staining. Sample preparation and fluorescent staining of cells. Cells were rinsed 2 times with pre-warmed HBSS (Invitrogen), detached from microcarrier beads/culture flasks with 0.25% trypsin-EDTA (Invitrogen) and counted using a hemocytometer. For inclusion of cells detached from the microcarrier beads (three-dimensional A549 and three-dimensional A549-U937 co-cultures) in the frame of QS exposure studies (see below), whole cultures (both aggregates and bulk liquid) were centrifuged at 1200 rpm for 6 min for each washing step. […]
(§6) Stained cell suspensions were analyzed with an EPICS XL flow cytometer (Beckman-Coulter) or a Cytomics FC 500 system (Beckman-Coulter), equipped with an argon laser and filters for adequate excitation of the chosen fluorophores. Forward scatter, side scatter, FITC-, PI and PE-Cy5 emissions were measured and a total of 10,000 cells were recorded for each sample. […]
(§7) After 72 hours of co-cultivation, aggregates containing 2×10^6 cells were seeded into 6-well plates containing fresh medium (5 ml total volume). […] Consequently, cell viability was further assessed based on the shift in forward scatter signal (see Table 1).

[6] = test system: ICAM-1 signal of the macrophage-like cells (U937, CD45 positive); assay: ICAM-1 signal of macrophage-like cells in the three-dimensional A549-U937 co-culture exposed to 3-oxo-C12 HSL, flow cytometry; format: cell-based, human; details: 100 μM; 20 hours; p<0.01; mean ± SD, N=3
From the text: as §5, §6, §7

CCCCCCCCCC(=O)CC(=O)N[C@H]1CCOC1=O [3-oxo-C12 HSL, N-(3-oxododecanoyl)-Lhomoserine lactone]
Percentage viability, A549-U937 3-D, A549 ([1]; 5 μM): 90.3 ± 0.01% | Percentage viability, A549-U937 3-D, A549 ([1]; 10 μM): 92.6 ± 0.00% | Percentage viability, A549-U937 3-D, A549 ([1]; 100 μM): 84.3 ± 0.00% | macrophage cell death with inclusion of all detached cells ([2]; 100 μM versus DMSO control): no difference in macrophage cell death | decrease of the ratio of U937 cells to the total cell population in three-dimensional A549-U937 aggregates ([2]; 100 μM, compared to the non-exposed control): 37±5% | viability of macrophage-like U937 cells co-cultured with A549 in three-dimensional ([2]; 100 μM, up to 20 hours): minimally affected in viability | death in the attached macrophage-like cell population of the co-culture ([2]; 5 and 10 μM, compared to the control): did not induce increased death | Percentage viability, A549-U937 3-D, U937 ([2]; 5 μM): 97.1 ± 0.01% | Percentage viability, A549-U937 3-D, U937 ([2]; 10 μM): 99.3 ± 0.01% | Percentage viability, A549-U937 3-D, U937 ([2]; 100 μM): 93.8 ± 0.03% | cell death in three-dimensional co-cultured monocytes/macrophages with alveolar epithelium ([2]; concentrations up to 100 μM, either of the cell populations): did not induce cell death | change of 3-oxo-C12 HSL concentration over time [3]: minimal differences in 3-oxo-C12 HSL concentration over time | remaining fraction of the original 3-oxo-C12 HSL concentration ([4]; after 2 hours of exposure): 30% | residual 3-oxo-C12 HSL ([4]; after 20 hours of exposure): no residual 3-oxo-C12 HSL could be detected | ICAM-1 expression increase compared to the solvent control ([5]; 100 μM, 20 hours, p<0.01, mean ± SD, N=3): 1.66±0.11 fold | ICAM-1 expression ([5]; lower concentrations of the QS molecule): did not affect ICAM-1 expression | increase in the ICAM-1 signal compared to the control samples [6]: 2.93±0.79 fold
